Laboratory results published in patent US20030036049A1, “Optical method for testing sensitivity of cells” (MEDIS EL LTD., priority 2001, published 2003).

How the values were obtained:
[1] = test system: T47D human breast cancer cells; assay: FDA fluorescence polarization, Electro-optical scanner (CellScan); type: cell-based; conditions: FIG. 5 panel 191
Description: (§1) About 2×10^5 cells were plated on 6 well-plates and left overnight to adhere. Two different concentrations of different drugs were added for a period of 24, 48 and 72 hours and then cells were harvested with trypsin, centrifuged, and resuspended in culture medium until staining.
(§2) Cell staining and loading: Three samples were prepared for each treatment at a specific time point and stained each with a different dye: fluorescein diacetate (FDA), rhodamine 123 (Rh123), and acridine orange (AO). […]
(§3) Cells in suspension were stained for 5 minutes with FDA at a final concentration of 2.4 micromolar. The cells were then loaded on the cell carrier, washed twice with PBS supplemented with Mg^+2 and Ca^+2, and fluorescence intensity and polarization were measured by an He/Cd laser-based CellScan™ electro-optical scanner. […]
(§4) For the excitation of FDA-stained cells an He/Cd laser was utilized (442 nm, excitation power of 4.5 microwatt) and emission measured at 527 nm. For the detection of AO and Rh123-stained cells an Argon laser was utilized (488 nm, excitation power of 15 microwatt) and emission measured at 530 nm.
(§5) The fluorescence emission of an area containing 20×20 wells was measured using a preset photon counting mode in which the same number of photons is counted for each cell (10,000), canceling differences in precision from strong and weak-emitting cells. […]

[2] = test system: T47D human breast cancer cells; assay: Rh123 fluorescence intensity, Electro-optical scanner (CellScan); type: cell-based
Description: as §1, §2
Rh123 (1 microgram/milliliter final concentration) was added to cells suspended in culture medium for 30 minutes at 37° C. Then the cells were washed twice with cold PBS supplemented with Mg^+2 and Ca^+2, loaded on the cell carrier and fluorescence intensity and polarization were measured by an Argon laser-based Electro-optical scanner. […]
as §4, §5

[3] = test system: T47D human breast cancer cells; assay: AO fluorescence intensity, Electro-optical scanner (CellScan); type: cell-based; conditions: FIG. 6 panels 195-197
Description: as §1
(§6) Cell staining and loading: Three samples were prepared for each treatment at a specific time point and stained each with a different dye: fluorescein diacetate (FDA), rhodamine 123 (Rh123), and acridine orange (AO).
(§7) AO is usually used as a direct probe for nucleic acids in fixed or permeabilized cells. When used under appropriate conditions of concentration and pH it gives bright green fluorescence when bound to double-stranded DNA and red deep fluorescence when bound to single strand RNA and can serve for estimation of cellular DNA content and transcriptional activity. AO was added directly to the cell carrier loaded with cells for 5 minutes at a final concentration of 10 microgram/milliliter, washed twice directly on the grid and measured on an Argon laser-based Electro-optical scanner. […]
(§8) For the excitation of FDA-stained cells an He/Cd laser was utilized (442 nm, excitation power of 4.5 microwatt) and emission measured at 527 nm. For the detection of AO and Rh123-stained cells an Argon laser was utilized (488 nm, excitation power of 15 microwatt) and emission measured at 530 nm. […]

[4] = test system: T47D human breast cancer cells; assay: Viable cell count on hemocytometer with trypan blue exclusion; type: cell-based; conditions: low and high doses, 24, 48, 72 hours, FIG. 2 panel 181
Description: (§9) Cell culture: T80 and T47D human breast cancer cells were routinely cultured in DMEM supplemented with 10% fetal calf serum (FCS) (Biological Industries, Beit Haemek, Israel), 4 mM glutamine (Biological Ind.), 100 u/ml penicillin, 0.1 milligram/milliliter streptomycin, 12.5 units/milliliter nystatin (Biological Ind.) and 0.2 units/milliliter insulin (Lilly, Fegersheim, France).
as §1
(§10) Navelbine and 5-Fluorouracil (5FU) where added at low and high doses to T80 and T47D cells respectively for 24, 48, and 72 hours. The cells were counted on a hemocytometer, using trypan blue for exclusion of dead cells, for the purpose of Electro-optical scanner -independent estimation of drug efficacy.

[5] = test system: T80 human breast cancer cells; assay: Rh123 fluorescence intensity, Electro-optical scanner (CellScan)
[6] = test system: T80 human breast cancer cells; assay: FDA fluorescence polarization, Electro-optical scanner (CellScan); type: cell-based; conditions: FIG. 5 panel 190
Description: as §1, §2, §3, §4, §5

[7] = test system: T80 human breast cancer cells; assay: AO fluorescence intensity, Electro-optical scanner (CellScan); type: cell-based; conditions: one day after starting treatment, FIG. 6 panels 192-194
Description: as §1, §6, §7, §8

[8] = test system: T80 human breast cancer cells; assay: Viable cell count on hemocytometer with trypan blue exclusion; type: cell-based; conditions: low and high doses, 24, 48, 72 hours, FIG. 2 panel 180
Description: as §9, §1, §10

Structure (SMILES)	change of mean polarization of FDA fluorescence [1]	change in Rh123 fluorescence intensity versus control untreated cells ([2]; FIG. 3 panel 183)	change of mean fluorescence intensity of Rh123 stained cells, measured one-cell-at-a-time ([2]; FIG. 4 panels 187-189)	change of mean fluorescence intensity of AO stained cells, measured one-cell-at-a-time [3]	effect on number of viable cells counted (trypan blue exclusion) [4]	change in Rh123 fluorescence intensity versus control untreated cells ([5]; FIG. 3 panel 182)	change of mean fluorescence intensity of Rh123 stained cells, measured one-cell-at-a-time ([5]; one day after starting treatment, FIG. 4 panels 184-186)	change of mean polarization of FDA fluorescence [6]	change of mean fluorescence intensity of AO stained cells, measured one-cell-at-a-time [7]	effect on number of viable cells counted (trypan blue exclusion) [8]
O=c1[nH]cc(F)c(=O)[nH]1 [5FU, 5-Fluorouracil]	no significant change of mean fluorescence polarization	no significant change in fluorescence intensity	no significant change of mean fluorescence intensity	no significant change of mean fluorescence intensity	mild and not significant effects	–	–	–	–	–
CCC1=C[C@@H]2CN(C1)Cc1c([nH]c3ccccc13)[C@@](C(=O)OC)(c1cc3c(cc1OC)N(C)[C@H]1[C@@](O)(C(=O)OC)[C@H](OC(C)=O)[C@]4(CC)C=CCN5CC[C@]31[C@@H]54)C2 [Navelbine]	–	–	–	–	–	decrease in Rh123 fluorescence intensity is obvious and markedly significant	decrease of mean fluorescence intensity	increase of mean polarization	decrease of mean fluorescence intensity	cytotoxic effect
